According to patent publication US20180340008A1, “ANTIBIOTIC OLIGOPEPTIDE MIMETICS” (priority 2017, published 2018):
Structures can show the parent of a compound that is named as a salt. Non-standard residues stand in square brackets, D forms with d. Residues, ends and D or L forms follow the SMILES beside them. ξ: configuration not given here. *: point of attachment. ξW = NC(Cc1c[nH]c2ccccc12)C(=O)O; NHOH = ON*

Test system: E. coli (ATTC 8739)
Assay: Zone of inhibition test in Petri dish
Type: cell-based
Procedure: Compound A was tested against L-phenylalanine-(S)-2-amino-N-hydroxy-4-(methylthio)butanamide hydrochloride (Example 3) in a side-by-side comparison in a conventional zone of inhibition test. In this test, both compounds were compared at various concentrations against E. coli (ATTC 8739) grown in a Petri dish using the antibiotic kanamycin as a control.

Compound | strength of zone of inhibition (at 50 μg) | concentration at which a zone of inhibition was shown (Petri dish, kanamycin control, FIG. 1A/1B) [µg] | strength of zone of inhibition compared with cpd. A at 50 μg (at 12.5 μg)
CSCC[C@H](NC(=O)CN)C(=O)NO [Compound A, reference compound] | quite weak | – | –
CSCC[C@H](NC(=O)C(N)Cc1c[nH]c2ccccc12)C(=O)NO (stereo partly drawn) [Example 3, L-Tryptophan-(S)-2-amino-N-hydroxy-4-(methylthio)butanamide hydrochloride] (H-[ξW]-Met-{NHOH}) | – | 12.5 | substantially stronger
